This note sets out measurements from patent publication US20130011855A1, “Methods for Determining Aged Based Accumulation of Senescent Cells Using Senescense Specific DNA Damage Markers” (priority 2008, published 2013).

Data set [1] relates to 53BP1/phospho ATM (S1981) foci in hepatocytes. Briefly: Hepatocytes positive for 53BP1/phospho ATM co-localized foci in liver sections. It is filed as in vivo, mice. The method, then: (§1) Eight to eleven-day-old F1 mice from C57BL/6, obtained from the National Institute of Aging, Aged Rodent Colonies (Bethesda, Md.), were injected intraperitoneally with AAT (Sigma-Aldrich; St. Louis, Mo.) at 2 mg/kg body weight in corn oil. […] Control gender-matched litter mates were injected with corn oil or PBS. […] Female C57BL/6 mice (4- and 22-month-old) were allowed to acclimate at least 1 week prior to usage. All procedures were done within the guidelines of the Animal Research Committee at the University of Illinois at Chicago and the “Principles of laboratory animal care” (NIH publication No. 86-23, revised 1985).
(§2) To detect DNA damage foci, frozen 5-micron liver sections were rapidly transferred to slides after sectioning, then immediately fixed in 2% paraformaldehyde PBS for 20 min, and then prepared following standard protocols. […] Foci-associated nuclei and total nuclei were counted using Image Pro Plus software (MediaCybernetics, Bethesda, Md.). Three to four mice were used for each time point and 300-500 nuclei were counted for each subject. Relative fluorescence intensity of foci in images was quantitated using the density measurement of the Image Pro Plus software with subtraction of local background levels. Four to seven mice were studied per time point with 8 to 18 53BP1/phospho ATM foci scored per mouse. […]

In data set [2] the test system is p53 (S 15). Put plainly: Phospho p53 (S15) immunostaining of liver sections. It is filed as in vivo, mice. The settings on record: baseline or near baseline levels by 3-7 weeks post exposure. The method, then:
as §1, §2

The test system of data set [3] is ATM/ATR p (S/TQ). Briefly: Relative immunofluorescent intensity of ATM/ATR p (S/TQ) foci in frozen liver sections. Type of data set: in vivo. As to conditions: single i.p. injection to juvenile mice, liver hepatocytes. The method, then:
as §1, §2

For data set [4], the system named is primary hepatocytes. Briefly: SA β Gal assay on hepatocytes isolated from exposed mice. Type of data set: cell-based. As to conditions: hepatocytes from exposed mice in primary culture. How it is done: (§3) FIG. 5A Collagenase perfusion was used to isolate hepatocytes from juvenile mice exposed 3 weeks previously to AAT. Twenty-four hours prior to fixation, cells were incubated with [3H]thymidine to allow the quantitation of the S phase index after processing for autoradiography. Shown are the means plus the (standard deviations) S.D. *P<0.002 versus the controls. FIG. 5B Cells isolated as described above from mice exposed, or not exposed, to AAT were subjected to the SA-β-Gal assay after fixation. At least 100 cells were counted on each plate from 3 to 5 control mice and 5 to 6 AAT exposed mice depending on the time point. Shown are the means plus S.D. *P<0.05 versus the controls. FIG. 5C Shown is a representative bright field image of primary hepatocytes 3 days after culture. Arrows indicate the blue, peri-nuclear stained, SA β Gal-positive cells. To reduce background [3H]thymidine detection was not done in this experiment. The phase contrast image below allows better visualization of the cells, original magnification 100×. […]
DNA damage repair proteins such as Chk2 that are active in DDR are not active during senesce. […] There was no enrichment of activated phospho p53 (S15) or Chk2 (T68), while phospho ATM (S1981) positive cells were detected but the foci were of low intensity (FIG. 3, Table 1, data not shown). […]

Data set [5] has as its system primary hepatocytes. Put plainly: S phase index by [3H]thymidine labeling of hepatocytes isolated from exposed mice. As to conditions: hepatocytes from juvenile mice exposed 3 weeks previously. Type of data set: cell-based. The method, then:
as §3, with “100×. FIG. 5D Hepatocytes isolated from adult 4-month-old and 22-month-old were cultured and assayed for S phase index as described. Shown are means plus S.D. There is a lag in S phase entry in cells from these adult mice. *P<0.02 and **P<0.004. FIG. 5E Hepatocytes from young adult and aged adult mice were cultured as described and then subjected to the SA β Gal assay.” for “100×.”

Data set [6] has as its system phospho Chk2 (T68). Briefly: Phospho Chk2 (T68) nuclear immunostaining of liver sections. It is filed as in vivo, mice. The method, then:
as §1, §2

Data set [7] has as its system 53BP1 foci in hepatocytes. Briefly: 53BP1 foci immunolocalization in hepatocytes of frozen liver sections. Type of data set: in vivo, mice. As to conditions: by 2.5 days after exposure.
Method: Eight to eleven-day-old F1 mice from C57BL/6, obtained from the National Institute of Aging, Aged Rodent Colonies (Bethesda, Md.), were injected intraperitoneally with AAT (Sigma-Aldrich; St. Louis, Mo.) at 2 mg/kg body weight in corn oil. […] Control gender-matched litter mates were injected with corn oil or PBS. […] All procedures were done within the guidelines of the Animal Research Committee at the University of Illinois at Chicago and the “Principles of laboratory animal care” (NIH publication No. 86-23, revised 1985).
To detect DNA damage foci, frozen 5-micron liver sections were rapidly transferred to slides after sectioning, then immediately fixed in 2% paraformaldehyde PBS for 20 min, and then prepared following standard protocols. […] The specificity was verified by blockage with oligopeptides bearing the antigenic sequences. […] Foci-associated nuclei and total nuclei were counted using Image Pro Plus software (MediaCybernetics, Bethesda, Md.). Three to four mice were used for each time point and 300-500 nuclei were counted for each subject. Relative fluorescence intensity of foci in images was quantitated using the density measurement of the Image Pro Plus software with subtraction of local background levels. Four to seven mice were studied per time point with 8 to 18 53BP1/phospho ATM foci scored per mouse. […]
In data set [8] the test system is ATM p (S1987). Briefly: Relative immunofluorescent intensity of phospho ATM foci in frozen liver sections. The settings on record: for Relative immunofluorescent intensity of foci for ATM p (S1987): single i.p. injection to juvenile mice, liver hepatocytes; for signal strength of phospho ATM in 53BP1/phospho ATM foci: by 7 weeks after exposure. Type of data set: in vivo, mice. How it is done:
as §1
To detect DNA damage foci, frozen 5-micron liver sections were rapidly transferred to slides after sectioning, then immediately fixed in 2% paraformaldehyde PBS for 20 min, and then prepared following standard protocols. […] The specificity was verified by blockage with oligopeptides bearing the antigenic sequences. Antiphospho ATM (S1981) (Rockland Immunochemicals, Gilbertsville, Pa.; 1:800) was a mouse antibody. Anti-rabbit and anti-mouse secondary antibodies conjugated to Cy-3 were obtained from Jackson Immunoresearch (West Grove, Pa.). Prior to mouse primary antibody application, tissues were first blocked with 1% goat anti-mouse FAB (Jackson Immunoresearch) followed by incubation with 4% BSA. Slides were counterstained with 0.2 ug/ml 4′,6-diamidino-2-phenylindole (DAPI) for 2 min prior to mounting in mowiol (Calbiochem; San Diego, Calif.) with 2% 1,4-diazobicyclo[2,2,2]octane (Sigma-Aldrich). Fluorescent 400× images were typically collected immediately after the assay. Foci-associated nuclei and total nuclei were counted using Image Pro Plus software (MediaCybernetics, Bethesda, Md.). Three to four mice were used for each time point and 300-500 nuclei were counted for each subject. Relative fluorescence intensity of foci in images was quantitated using the density measurement of the Image Pro Plus software with subtraction of local background levels. Four to seven mice were studied per time point with 8 to 18 53BP1/phospho ATM foci scored per mouse. Minimally exposed images were used. The student's t-test was used for statistical comparisons for these and other experiments. For double labeling with anti-phospho ATM (S1981) and anti-53BP1 antibodies, sections were prepared as described above, first labeling with the anti-phospho-ATM (S1981) and Cy-3 secondary antibody as above, then incubated with 4% BSA, followed by anti-53BP1 and then by Alexa 488 conjugated goat anti-rabbit antibody (Invitrogen; Carlsbad, Calif.; 1:200). All secondary antibodies were pre-adsorbed to reduce cross-reactivity as verified by negative control experiments.

`Cc1cc(N=Nc2ccccc2C)ccc1N` [AAT, aminoazotoluene]: in data set [1] (1 and 3 weeks after genotoxin exposure), the “nuclear foci containing both 53BP1 and phospho ATM” value is recorded as “elevated levels of nuclear foci”. Moreover, the “cells with 53BP1/phospho ATM foci” value in data set [1] (7 weeks after exposure, versus unexposed control mice) is on record as “still present at higher levels than in the unexposed control mice”. Besides, the “activation of p53 (S 15) over time” value in data set [2] is on record as “activated only transiently”. The “Relative immunofluorescent intensity of foci for ATM/ATR p (S/TQ)” value in data set [3] (3 Wk post exposure) was 100 ± 20.0; in data set [3] (7 Wk post exposure) it was 50 ± 17.5^A. For the same molecule, the “SA β Gal staining of isolated hepatocytes” value in data set [4] is listed as “positive for SA β Gal”. In data set [5], the “S phase entry of isolated hepatocytes” value is on record as “defective for S phase entry”. Moreover, the “phospho Chk2 positive nuclei” value in data set [6] (0.5 and 1 week after exposure) was “high levels of nuclear staining”. Further, in data set [6] (baseline or near baseline levels by 3-7 weeks post exposure), the “activation of Chk2 (T68) over time” value is listed as “activated only transiently”. Further, in data set [7], the “53BP1 foci in hepatocytes” value is reported as “Appearance of 53BP1 foci”. Further, the “Relative immunofluorescent intensity of foci for ATM p (S1987)” value in data set [8] (3 Wk post exposure) is listed as 100 ± 4.50; in data set [8] (7 Wk post exposure), 50 ± 9.80^D. The “signal strength of phospho ATM in 53BP1/phospho ATM foci” value in data set [8] is recorded as “significant decreases in the signal strength of phospho ATM”.
On to `CO[C@@]12[C@H](COC(N)=O)C3=C(C(=O)C(C)=C(N)C3=O)N1C[C@@H]1N[C@@H]12` [mitomycin C], for which the “signal strength of phospho ATM in 53BP1/phospho ATM foci” value in data set [8] is “significant decreases in the signal strength of phospho ATM”.
